Assay results reported in the supplement of paper PMC10627819.

Experiments:
[1] = tested on: S. pneumoniae D39V; assay: fitness (endpoint OD595 vs no drug) (fraction); higher = more growth
Method in brief: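 With the first reading as background, OD595 was measured every 30 min for 14 h in 384-well plates kept at 37 °C and inoculated at OD595 0.01. TSB, LB Lennox or CY was the medium. Fitness is the optical density at the transition into stationary phase divided by the robust mean of no-drug control wells, with a cap of 1.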

[2] = tested on: B. subtilis 168; assay: Bliss interaction score (quartile over a dose matrix) (fitness difference); higher = more antagonism (negative = synergy)
Method in brief: (§1)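 The Bliss score is observed fitness minus expected fitness, where the expected value is the product of single-drug fitness values inferred from combination data. Fitness is OD595 at entry into stationary phase normalised to the plate's robust no-drug mean and capped at 1. Scores are reported as quartiles spanning technical, biological and donor/recipient replicates.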

[3] = tested on: S. aureus DSM 20231; assay: as above
Method in brief: as §1

[4] = tested on: S. aureus Newman; assay: as above
Method in brief: as §1

[5] = tested on: S. pneumoniae D39V; assay: as above
Method in brief: as §1
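For Bliss interaction score (quartile over a dose matrix) in this document: first quartile when negative (synergy) and third quartile when positive (antagonism).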
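For fitness (endpoint OD595 vs no drug) in this document: OD595 on entry to stationary phase over no-drug wells; at most 1.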

CC[C@H]1OC(=O)[C@H](C)[C@@H](O[C@H]2C[C@@](C)(OC)[C@@H](O)[C@H](C)O2)[C@H](C)[C@@H](O[C@@H]2O[C@H](C)C[C@H](N(C)C)[C@H]2O)[C@](C)(OC)C[C@@H](C)C(=O)[C@H](C)[C@@H](O)[C@]1(C)O [Clarithromycin] + CN(C)c1cc(NC(=O)CNC(C)(C)C)c(O)c2c1C[C@H]1C[C@H]3[C@H](N(C)C)C(O)=C(C(N)=O)C(=O)[C@@]3(O)C(O)=C1C2=O [Tigecycline]
fitness, [1], one replicate
Details	first compound 0.007812 µg/mL	first compound 0.01562 µg/mL	first compound 0.03125 µg/mL
partner 0.65 µg/mL	0.848	0.757	0.646
partner 1.3 µg/mL	0.813	0.749	0.633
partner 2.6 µg/mL	0.815	0.747	0.619

fitness, [1]
Details	first compound 0.0625 µg/mL	first compound 0.07 µg/mL	first compound 0.125 µg/mL	first compound 0.14 µg/mL	first compound 0.25 µg/mL	first compound 0.28 µg/mL
partner 0.325 µg/mL	–	0.111	–	0.071	–	0.0539
partner 0.65 µg/mL	0.589	0.0865	0.253	0.0638	0.113	0.0627
partner 1.3 µg/mL	0.506	0.0861	0.213	0.0727	0.103	0.068
partner 2.6 µg/mL	0.494	–	0.198	–	0.119	–

Details	Bliss interaction score
[2]	0.0852
[3]	0.0343
[4]	-0.0401
[5]	-0.0848

CCC[C@@H]1C[C@@H](C(=O)N[C@@H]([C@H]2O[C@H](SC)[C@H](O)[C@@H](O)[C@H]2O)[C@@H](C)O)N(C)C1 [Lincomycin] + Clc1ccc(COC(Cn2ccnc2)c2ccc(Cl)cc2Cl)c(Cl)c1 [Miconazole]
[1]
Details	fitness
first compound 0.2 µg/mL, partner 1.073 µg/mL	0.824
first compound 0.2 µg/mL, partner 2.145 µg/mL	0.874
first compound 0.2 µg/mL, partner 4.29 µg/mL	0.807
first compound 0.215 µg/mL, partner 1.25 µg/mL	0.808
first compound 0.215 µg/mL, partner 2.5 µg/mL	0.782
first compound 0.215 µg/mL, partner 5 µg/mL	0.81
first compound 0.4 µg/mL, partner 1.073 µg/mL	0.716
first compound 0.4 µg/mL, partner 2.145 µg/mL	0.683
first compound 0.4 µg/mL, partner 4.29 µg/mL	0.544
first compound 0.43 µg/mL, partner 1.25 µg/mL	0.71
first compound 0.43 µg/mL, partner 2.5 µg/mL	0.682
first compound 0.43 µg/mL, partner 5 µg/mL	0.689
first compound 0.8 µg/mL, partner 4.29 µg/mL	0.275
first compound 0.86 µg/mL, partner 1.25 µg/mL	0.264
first compound 0.86 µg/mL, partner 2.5 µg/mL	0.308
first compound 0.86 µg/mL, partner 5 µg/mL	0.377

Details	Bliss interaction score
[2]	0.0378
[3]	0.0484
[4]	0.0538
[5]	0.117
